Assay results published in ChEMBL document CHEMBL5303304, “EUbOPEN Chemogenomics Library - IncuCyte” (2023).

Assays:
Assay type in all cases: toxicity, cell-based
HEK-293T = test: Incucyte cell viability with HEK293T; settings: human, 10 µM, compound concentration 10 uM
Fibroblast = test: Incucyte cell viability with human fibroblast; settings: 10 µM, compound concentration 10 uM
U2OS = test: Incucyte cell viability with U2OS; settings: human, 10 µM, compound concentration 10 uM
Also: unitless GR value; below 1 slowed growth and below 0 cell loss.

Structure (SMILES) | Growth Rate (HEK-293T; 0 h, replicate number 1) | Growth Rate (HEK-293T; 6 h, replicate number 1) | Growth Rate (HEK-293T; 6 h, replicate number 2) | Growth Rate (HEK-293T; 12 h, replicate number 1) | Growth Rate (HEK-293T; 12 h, replicate number 2) | Growth Rate (HEK-293T; 18 h, replicate number 1) | Growth Rate (HEK-293T; 18 h, replicate number 2) | Growth Rate (HEK-293T; 24 h, replicate number 1) | Growth Rate (HEK-293T; 24 h, replicate number 2) | Growth Rate (Fibroblast; 0 h, replicate number 1) | Growth Rate (Fibroblast; 0 h, replicate number 2) | Growth Rate (Fibroblast; 6 h, replicate number 1) | Growth Rate (Fibroblast; 12 h, replicate number 2) | Growth Rate (Fibroblast; 18 h, replicate number 2) | Growth Rate (U2OS; 0 h, replicate number 1) | Growth Rate (U2OS; 6 h, replicate number 1) | Growth Rate (U2OS; 12 h, replicate number 1) | Growth Rate (U2OS; 18 h, replicate number 1) | Growth Rate (U2OS; 18 h, replicate number 2) | Growth Rate (U2OS; 24 h, replicate number 1) | further results
CCc1cnn2c(NCc3ccc[n+]([O-])c3)cc(N3CCCCC3CCO)nc12 (configuration not stated) | -0.01 | -0.39 | -0.72 | -0.26 | -0.66 | -0.2 | -0.53 | -0.14 | -0.41 | -0.96 | 0.67 | 0.11 | -0.13 | -0.04 | -0.62 | 0.19 | -0.08 | -0.15 | -0.08 | -0.23 | Growth Rate (Fibroblast; 6 h, replicate number 2): 0; Growth Rate (Fibroblast; 12 h, replicate number 1): 0.25; Growth Rate (Fibroblast; 18 h, replicate number 1): 0.16; Growth Rate (Fibroblast; 24 h, replicate number 1): 0.25; Growth Rate (Fibroblast; 24 h, replicate number 2): -0.14; Growth Rate (U2OS; 0 h, replicate number 2): 0.91; Growth Rate (U2OS; 6 h, replicate number 2): 0.07; Growth Rate (U2OS; 12 h, replicate number 2): 0.11
CCCCOc1c(C(=O)c2c(F)cc(C)cc2F)c[nH]c2nncc1-2 | -1 |  |  |  |  |  |  |  |  | -1 |  |  |  |  | -1 |  |  |  |  |  | 
NS(=O)(=O)c1ccc(Nc2nc(OCC3CCCCC3)c3nc[nH]c3n2)cc1 | 0.76 |  |  |  | 0.98 |  | 0.9 |  | 0.82 | -1 |  |  | 0.55 | 0.56 | -0.84 | -0.3 | 0.53 | 0.8 | 0.94 | 0.87 | Growth Rate (U2OS; 24 h, replicate number 2): 0.93
Cn1cc(-c2ccc(N(C(=O)NCc3ccccc3)[C@H]3CC[C@H](Nc4ccc(C#N)cn4)CC3)cc2)ccc1=O | -0.73 | -0.2 | -0.56 | -0.28 | -0.56 | -0.21 | -0.48 | -0.14 | -0.39 | 0.84 | -0.77 | 0.65 | -0.01 | -0.04 |  | 0.45 | 0.28 | 0.12 | 0.06 | -0.14 | Growth Rate (HEK-293T; 0 h, replicate number 2): 0.96; Growth Rate (Fibroblast; 6 h, replicate number 2): 0.48; Growth Rate (Fibroblast; 12 h, replicate number 1): 0.45; Growth Rate (Fibroblast; 18 h, replicate number 1): 0.17; Growth Rate (Fibroblast; 24 h, replicate number 1): 0.16; Growth Rate (Fibroblast; 24 h, replicate number 2): -0.08; Growth Rate (U2OS; 6 h, replicate number 2): 0.58; Growth Rate (U2OS; 24 h, replicate number 2): -0.05
